The results in this text go back to patent US20230102554A1 (GB002, INC., priority 2019, published 2023).

In experiment [1] the target is T1, Human PDGFRα, cytoplasmic domain (GST-PDGFRα) (Homo sapiens, UniProt P16234).
T1 construct: made in house
In words: Human PDGFRα biochemical inhibition assay (off-chip Mobility Shift Assay).

Experiment [2] concerns the target T2, Human PDGFRβ, cytoplasmic domain (GST-PDGFRβ) (Homo sapiens, UniProt P09619).
T2 construct: made in house
As to the kind of experiment: Human PDGFRβ biochemical inhibition assay (off-chip Mobility Shift Assay). The gist of the method: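 GST-tagged cytoplasmic domain (aa 557-1106) from baculovirus was incubated 1 h at room temperature with compound, CSKtide, ATP at Km and Mg²⁺ in HEPES buffer, pH 7.5. Phosphorylated and unphosphorylated peptide were separated by off-chip mobility shift, and the product ratio P/(P+S) gave percent inhibition.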

Some results are limits rather than exact numbers.

For orientation: IC50 means the concentration at which inhibition is half-maximal.

T2 sequence (P09619 with tags, fused parts or gaps): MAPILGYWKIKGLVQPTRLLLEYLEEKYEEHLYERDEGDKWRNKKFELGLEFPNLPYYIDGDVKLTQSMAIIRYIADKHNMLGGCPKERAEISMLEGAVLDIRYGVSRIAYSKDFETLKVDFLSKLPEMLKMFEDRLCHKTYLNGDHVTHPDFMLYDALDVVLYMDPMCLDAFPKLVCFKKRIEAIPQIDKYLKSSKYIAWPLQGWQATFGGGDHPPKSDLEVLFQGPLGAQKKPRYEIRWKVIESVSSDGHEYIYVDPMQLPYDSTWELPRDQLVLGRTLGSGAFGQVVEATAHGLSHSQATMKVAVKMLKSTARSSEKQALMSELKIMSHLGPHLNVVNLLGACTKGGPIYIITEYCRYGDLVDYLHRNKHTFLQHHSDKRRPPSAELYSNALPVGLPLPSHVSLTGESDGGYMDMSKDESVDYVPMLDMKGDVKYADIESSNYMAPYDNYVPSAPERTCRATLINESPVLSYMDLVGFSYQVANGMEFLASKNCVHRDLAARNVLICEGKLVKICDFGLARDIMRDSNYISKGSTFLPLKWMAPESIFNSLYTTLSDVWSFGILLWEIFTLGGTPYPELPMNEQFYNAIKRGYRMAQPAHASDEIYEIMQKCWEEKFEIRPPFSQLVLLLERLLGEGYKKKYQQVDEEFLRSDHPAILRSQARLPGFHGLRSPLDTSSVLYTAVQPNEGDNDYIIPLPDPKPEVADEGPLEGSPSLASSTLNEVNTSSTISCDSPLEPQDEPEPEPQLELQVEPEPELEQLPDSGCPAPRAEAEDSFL
T1 sequence (P16234 550-1089 T674I): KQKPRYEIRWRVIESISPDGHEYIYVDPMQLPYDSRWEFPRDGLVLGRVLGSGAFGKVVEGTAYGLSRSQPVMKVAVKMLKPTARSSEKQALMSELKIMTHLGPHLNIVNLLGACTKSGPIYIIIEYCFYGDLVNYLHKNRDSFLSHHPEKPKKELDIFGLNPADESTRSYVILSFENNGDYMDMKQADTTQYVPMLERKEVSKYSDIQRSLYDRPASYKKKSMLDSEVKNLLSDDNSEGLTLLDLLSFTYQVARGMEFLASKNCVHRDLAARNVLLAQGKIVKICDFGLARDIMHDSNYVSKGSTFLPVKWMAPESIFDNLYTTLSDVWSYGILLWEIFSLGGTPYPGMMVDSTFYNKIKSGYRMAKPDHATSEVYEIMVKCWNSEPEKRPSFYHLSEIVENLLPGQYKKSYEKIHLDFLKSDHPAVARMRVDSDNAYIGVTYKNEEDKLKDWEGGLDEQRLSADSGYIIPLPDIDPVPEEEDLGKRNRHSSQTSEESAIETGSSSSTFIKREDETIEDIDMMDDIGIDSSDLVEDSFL

Regarding `Cc1n[nH]c2ncc(N[C@@H](C)c3cccc(NC(=O)c4ccc(C5CC5)nc4)c3)nc12` [Compound 535, (S)-6-cyclopropyl-N-(3-(1-((3-methyl-1H-pyrazolo[3,4-b]pyrazin-5-yl)amino)ethyl)phenyl)nicotinamide], the IC50 in experiment [1] and in experiment [2] was less than 0.3 µM each time.
For the molecule `Cc1n[nH]c2ncc(N[C@@H](C)c3cccc(NC(=O)c4ccc(OC(F)(F)F)nc4)c3)nc12` [Compound 536, (S)-N-(3-(1-((3-methyl-1H-pyrazolo[3,4-b]pyrazin-5-yl)amino)ethyl)phenyl)-6-(trifluoromethoxy)nicotinamide], the concentration for half-maximal inhibition (IC50) in experiment [1] and in experiment [2] was less than 0.3 µM in each case.
As for `CCOc1ccc(C(=O)Nc2cccc([C@H](C)Nc3cnc4[nH]nc(C)c4n3)c2)cn1` [Compound 537, (S)-6-ethoxy-N-(3-(1-((3-methyl-1H-pyrazolo[3,4-b]pyrazin-5-yl)amino)ethyl)phenyl)nicotinamide], the IC50 in experiment [1] and in experiment [2] was less than 0.3 µM in each case.
With `Cc1cc(C(=O)Nc2cccc([C@H](C)Nc3cnc4[nH]nc(C)c4n3)c2)cnc1C(F)(F)F` [Compound 538, (S)-5-methyl-N-(3-(1-((3-methyl-1H-pyrazolo[3,4-b]pyrazin-5-yl)amino)ethyl)phenyl)-6-(trifluoromethyl) nicotinamide], the IC50 in experiment [1] and in experiment [2] was less than 0.3 µM throughout.
Consider `Cc1n[nH]c2ncc(N[C@@H](C)c3cccc(NC(=O)c4ccc(C(F)F)s4)c3)nc12` [Compound 539, (S)-5-(difluoromethyl)-N-(3-(1-((3-methyl-1H-pyrazolo[3,4-b]pyrazin-5-yl)amino)ethyl)phenyl)thiophene-2-carboxamide], for which the IC50 in experiment [1] and in experiment [2] was less than 0.3 µM throughout.
For the molecule `Cc1n[nH]c2ncc(N[C@@H](C)c3cccc(NC(=O)c4cnc(C(F)(F)F)s4)c3)nc12` [Compound 540, (S)-N-(3-(1-((3-methyl-1H-pyrazolo[3,4-b]pyrazin-5-yl)amino)ethyl)phenyl)-2-(trifluoromethyl)thiazole-5-carboxamide], the 50% inhibitory concentration (IC50) in experiment [1] and in experiment [2] was less than 0.3 µM in each case.
Take `Cc1n[nH]c2ncc(N[C@@H](C)c3cccc(NC(=O)c4cnc(C5CC5)s4)c3)nc12` [Compound 541, (S)-2-cyclopropyl-N-(3-(1-((3-methyl-1H-pyrazolo[3,4-b]pyrazin-5-yl)amino)ethyl)phenyl)thiazole-5-carboxamide]: the IC50 in experiment [1] and in experiment [2] was less than 0.3 µM in each case.
For `Cc1n[nH]c2ncc(N[C@@H](C)c3cccc(NC(=O)c4cc(C(C)C)on4)c3)nc12` [Compound 542, (S)-5-isopropyl-N-(3-(1-((3-methyl-1H-pyrazolo[3,4-b]pyrazin-5-yl)amino)ethyl)phenyl)isoxazole-3-carboxamide], the concentration for half-maximal inhibition (IC50) in experiment [1] and in experiment [2] was less than 0.3 µM throughout.
Take `Cc1n[nH]c2ncc(N[C@@H](C)c3cccc(NC(=O)c4cnn(C5CC5)c4)c3)nc12` [Compound 543, (S)-1-cyclopropyl-N-(3-(1-((3-methyl-1H-pyrazolo[3,4-b]pyrazin-5-yl)amino)ethyl)phenyl)-1H-pyrazole-4-carboxamide]: the IC50 in experiment [1] and in experiment [2] was less than 0.3 µM in each case.
As to `Cc1n[nH]c2ncc(N[C@@H](C)c3cccc(NC(=O)c4cnn(CCF)c4)c3)nc12` [Compound 544, (S)-1-(2-fluoroethyl)-N-(3-(1-((3-methyl-1H-pyrazolo[3,4-b]pyrazin-5-yl)amino)ethyl)phenyl)-1H-pyrazole-4-carboxamide], the IC50 in experiment [1] and in experiment [2] was less than 0.3 µM throughout.
`CCn1cc(C(=O)Nc2cccc([C@H](C)Nc3cnc4[nH]nc(C)c4n3)c2)cn1` [Compound 545, (S)-1-ethyl-N-(3-(1-((3-methyl-1H-pyrazolo[3,4-b]pyrazin-5-yl)amino)ethyl)phenyl)-1H-pyrazole-4-carboxamide]: the IC50 in experiment [1] and in experiment [2] was less than 0.3 µM in each case.
For the molecule `Cc1n[nH]c2ncc(N[C@@H](C)c3cccc(NC(=O)c4cnn(C(F)F)c4)c3)nc12` [Compound 546, (S)-1-(difluoromethyl)-N-(3-(1-((3-methyl-1H-pyrazolo[3,4-b]pyrazin-5-yl)amino)ethyl)phenyl)-1H-pyrazole-4-carboxamide], the IC50 in experiment [1] and in experiment [2] was less than 0.3 µM in each case.
Regarding `Cc1n[nH]c2ncc(N[C@@H](C)c3cccc(NC(=O)c4cc(C(F)(F)F)n(C)n4)c3)nc12` [Compound 547, (S)-1-methyl-N-(3-(1-((3-methyl-1H-pyrazolo[3,4-b]pyrazin-5-yl)amino)ethyl)phenyl)-5-(trifluoromethyl)-1H-pyrazole-3-carboxamide], the IC50 in experiment [1] and in experiment [2] was less than 0.3 µM in each case.
With `Cc1n[nH]c2ncc(N[C@@H](C)c3cccc(NC(=O)c4cc(C(F)(F)F)nn4C)c3)nc12` [Compound 548, (S)-1-methyl-N-(3-(1-((3-methyl-1H-pyrazolo[3,4-b]pyrazin-5-yl)amino)ethyl)phenyl)-3-(trifluoromethyl)-1H-pyrazole-5-carboxamide], the IC50 in experiment [1] and in experiment [2] was less than 0.3 µM throughout.
`Cc1cncc(C(=O)Nc2cccc([C@H](C)Nc3cnc4[nH]nc(Br)c4n3)c2)c1` [Compound 549, (S)-N-(3-(1-((3-bromo-1H-pyrazolo[3,4-b]pyrazin-5-yl)amino)ethyl)phenyl)-5-methylnicotinamide]: the IC50 in experiment [1] and in experiment [2] was less than 0.3 µM throughout.
Consider `Cc1cncc(C(=O)Nc2cccc([C@H](C)Nc3cnc4[nH]nc(Cl)c4n3)c2)c1` [Compound 550, (S)-N-(3-(1-((3-chloro-1H-pyrazolo[3,4-b]pyrazin-5-yl)amino)ethyl)phenyl)-5-methylnicotinamide], for which the 50% inhibitory concentration (IC50) in experiment [1] and in experiment [2] was less than 0.3 µM each time.
Take `Cc1cncc(C(=O)Nc2cccc([C@H](C)Nc3cnc4[nH]nc(-c5cnn(C)c5)c4n3)c2)c1` [Compound 551, (S)-5-methyl-N-(3-(1-((3-(1-methyl-1H-pyrazol-4-yl)-1H-pyrazolo[3,4-b]pyrazin-5-yl)amino)ethyl)phenyl) nicotinamide]: the concentration for half-maximal inhibition (IC50) in experiment [1] and in experiment [2] was less than 0.3 µM in each case.
With `Cc1cncc(C(=O)Nc2cccc([C@H](C)Nc3cnc4[nH]ccc4n3)c2)c1` [Compound 552, (S)-N-(3-(1-((5H-pyrrolo[2,3-b]pyrazin-2-yl)amino)ethyl)phenyl)-5-methylnicotinamide], the IC50 in experiment [1] and in experiment [2] was less than 0.3 µM throughout.
For the molecule `CC(C)c1cc(C(=O)Nc2cccc([C@H](C)Nc3cnc4[nH]ccc4n3)c2)no1` [Compound 553, (S)-N-(3-(1-((5H-pyrrolo[2,3-b]pyrazin-2-yl)amino)ethyl)phenyl)-5-isopropylisoxazole-3-carboxamide], the IC50 in experiment [1] and in experiment [2] was less than 0.3 µM in each case.
On to `Cc1c[nH]c2ncc(N[C@@H](C)c3cccc(NC(=O)c4cc(C(C)C)on4)c3)nc12` [Compound 554, (S)-5-isopropyl-N-(3-(1-((7-methyl-5H-pyrrolo[2,3-b]pyrazin-2-yl)amino)ethyl)phenyl)isoxazole-3-carboxamide], for which the IC50 in experiment [1] and in experiment [2] was less than 0.3 µM in each case.
In the case of `COc1cncc(C(=O)Nc2cccc([C@H](C)Nc3cnc4[nH]cc(C)c4n3)c2)c1` [Compound 555, (S)-5-methoxy-N-(3-(1-((7-methyl-5H-pyrrolo[2,3-b]pyrazin-2-yl)amino)ethyl)phenyl)nicotinamide], the IC50 in experiment [1] and in experiment [2] was less than 0.3 µM in each case.
